Literature values, collected in US20090202444A1 (priority 2009, published 2009).

Test system: bacteria

Structure (SMILES): [Ag+] [silver ion]
- silver ion concentration for inhibition of bacterial growth: below 5 ppm
